Results as given in US20260273072A1, “NOVEL PLK1 DEGRADATION INDUCING COMPOUND” (UPPTHERA, INC., priority 2023, published 2026).

Legend:
Type in all cases: cell-based
NCI-H526 cell line = assay: Cell viability assay for NCI-H526 cell line (EZ-Cytox); conditions: Homo sapiens, NCI-H526, 120 h; H526 cells, 5 days, 3000 nM to 0.46 nM
Procedure, shortened: (§1)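 Human SCLC lines cultured with compound for 5 days in a CO2 incubator; viability read by EZ-Cytox absorbance at 450 nm after 3 min shaking. IC50 reported in activity bins (A: <30 nM up to E: <400 nM).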

MRC-5 cell line = assay: Cell viability assay for MRC-5 cell line (EZ-Cytox); conditions: Homo sapiens, MRC5, 120 h; MRC-5 normal cell line, 5 days, 10000 nM to 1.52 nM; read-out: Activity: IC50 value, cell viability, MRC-5 cell line (Exemplary Compounds)
Description: 4. Cell Viability Assay for MRC-5 Cell Line
(1) Culture of MRC-5 Cell Line
The MRC-5 cell line was purchased from KCLB. Passage of cultured cells was maintained within P15.
(2) Treatment of Compounds of the Present Invention
Then, it was cultured in 37° C. CO2 incubator (Thermo Fisher Scientific) for 5 days.
(3) Cytotoxicity Experiment
CO2 incubator for 4 hours.

NCI-H69 cell line = assay: Cell viability assay for NCI-H69 cell line (EZ-Cytox); conditions: Homo sapiens, NCI-H69, 120 h; H69 cells, 5 days, 3000 nM to 0.46 nM
Procedure, shortened: as §1

PLK1 = target: T1, PLK1 (Homo sapiens, UniProt P53350); assay: Luciferase assay for PLK1 in HeLa LgBit (Plk1-HiBit KI) cell line; conditions: 300 nM compound, luminescence after 9 hours
T1 construct: endogenous in cells; host or cells: HeLa LgBit (Plk1-HiBit KI): HeLa stably expressing LgBit, with a CRISPR/Cas9 knock-in of HiBit at the endogenous PLK1 locus
Procedure, shortened: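 HeLa LgBit cells with endogenous PLK1 C-terminally HiBit-tagged by CRISPR knock-in; released from 24 h 2 mM thymidine block, seeded, grown 18 h. Compounds at 300 nM with Endurazine substrate; luminescence (470-480 nm) tracked in real time, expressed as ratio to DMSO.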

T1 sequence (P53350 whole entry): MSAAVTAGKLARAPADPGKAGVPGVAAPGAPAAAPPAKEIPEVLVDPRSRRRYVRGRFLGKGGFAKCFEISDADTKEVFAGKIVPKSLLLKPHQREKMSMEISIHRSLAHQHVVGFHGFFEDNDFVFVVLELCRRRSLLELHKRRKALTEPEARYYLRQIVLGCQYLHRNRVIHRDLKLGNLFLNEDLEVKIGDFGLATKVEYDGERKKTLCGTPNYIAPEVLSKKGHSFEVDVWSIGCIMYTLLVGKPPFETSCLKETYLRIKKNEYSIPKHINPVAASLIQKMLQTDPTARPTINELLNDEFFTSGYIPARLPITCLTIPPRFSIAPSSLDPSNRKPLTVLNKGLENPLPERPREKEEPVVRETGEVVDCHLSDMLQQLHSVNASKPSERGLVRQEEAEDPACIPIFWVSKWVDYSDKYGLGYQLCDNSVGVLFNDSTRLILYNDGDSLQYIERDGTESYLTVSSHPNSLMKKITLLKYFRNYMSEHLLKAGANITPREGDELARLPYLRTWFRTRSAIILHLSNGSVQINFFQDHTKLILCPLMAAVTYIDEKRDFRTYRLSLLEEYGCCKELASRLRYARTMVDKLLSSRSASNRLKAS

Activity: ratio of the luminescence value of compound treatment group to DMSO treatment group (PLK1)	SMILES	IC50 (NCI-H526 cell line) [nM]	IC50 (MRC-5 cell line) [nM]	IC50 (NCI-H69 cell line) [nM]
++ (++: <0.5)	COc1cc(C(=O)NC2CCC(N(C)CC3CCN(c4ccc(NC5CCC(=O)NC5=O)cc4F)CC3)CC2)ccc1Nc1ncc2c(n1)N(C(C)C)CC(F)(F)C(=O)N2C (centres unmarked) [Compound 26, 4-((7,7-difluoro-9-isopropyl-5-methyl-6-oxo-6,7,8,9-tetrahydro-5H-pyrimido[4,5-b][1,4]diazepin-2-yl)amino)-N-((1r,4r)-4-(((1-(4-((2,6-dioxopiperidin-3-yl)amino)-2-fluorophenyl)piperidin-4-yl)methyl)(methyl)amino)cyclohexyl)-3-methoxybenzamide]	< 30	> 10000	< 30
+++ (+++: <0.3)	CCN1CC(F)(F)C(=O)N(C)c2cnc(Nc3ccc(C(=O)NC4CCC(N(C)CC5CCN(c6ccc(NC7CCC(=O)NC7=O)cc6F)CC5)CC4)cc3OC)nc21 (centres unmarked) [Compound 27, N((1r,4r)-4-(((1-(4-((2,6-dioxopiperidin-3-yl)amino)-2-fluorophenyl)piperidin-4-yl)methyl)(methyl)amino)cyclohexyl)-4-((9-ethyl-7,7-difluoro-5-methyl-6-oxo-6,7,8,9-tetrahydro-5H-pyrimido[4,5-b][1,4]diazepin-2-yl)amino)-3-methoxybenzamide]	< 30	> 10000	< 30
+++ (+++: <0.3)	CCN1CC(F)(F)C(=O)N(C)c2cnc(Nc3ccc(C(=O)NN4CCC(CCN5CCN(c6ccc(NC7CCC(=O)NC7=O)cc6F)CC5)CC4)cc3OC)nc21 (centres unmarked) [Compound 28, N(4-(2-(4-(4-((2,6-dioxopiperidin-3-yl)amino)-2-fluorophenyl)piperazin-1-yl)ethyl)piperidin-1-yl)-4-((9-ethyl-7,7-difluoro-5-methyl-6-oxo-6,7,8,9-tetrahydro-5H-pyrimido[4,5-b][1,4]diazepin-2-yl)amino)-3-methoxybenzamide]	< 30	> 10000	< 30
+++ (+++: <0.3)	COc1cc(C(=O)NN2CCC(CCN3CCN(c4ccc(NC5CCC(=O)NC5=O)cc4F)CC3)CC2)ccc1Nc1ncc2c(n1)N(C(C)C)CC(F)(F)C(=O)N2C (centres unmarked) [Compound 29, 4-((7,7-difluoro-9-isopropyl-5-methyl-6-oxo-6,7,8,9-tetrahydro-5H-pyrimido[4,5-b][1,4]diazepin-2-yl)amino)-N-(4-(2-(4-(4-((2,6-dioxopiperidin-3-yl)amino)-2-fluorophenyl)piperazin-1-yl)ethyl)piperidin-1-yl)-3-methoxybenzamide]	< 30	> 10000	< 30
+++ (+++: <0.3)	COc1cc(C(=O)NC2CCN(CCC3CCN(c4ccc(NC5CCC(=O)NC5=O)cc4F)CC3)CC2)ccc1Nc1ncc2c(n1)N(C1CCCC1)CC(F)(F)C(=O)N2C (centres unmarked) [Compound 30, 4-((9-cyclopentyl-7,7-difluoro-5-methyl-6-oxo-6,7,8,9-tetrahydro-5H-pyrimido[4,5-b][1,4]diazepin-2-yl)amino)-N-(1-(2-(1-(4-((2,6-dioxopiperidin-3-yl)amino)-2-fluorophenyl)piperidin-4-yl)ethyl)piperidin-4-yl)-3-methoxybenzamide]	< 30	> 10000	< 30
++ (++: <0.5)	COc1cc(C(=O)NC2CCN(CCN3CCN(c4ccc(NC5CCC(=O)NC5=O)c(F)c4)CC3)CC2)ccc1Nc1ncc2c(n1)N(C1CCCC1)CC(F)(F)C(=O)N2C (centres unmarked) [Compound 32, 4-((9-cyclopentyl-7,7-difluoro-5-methyl-6-oxo-6,7,8,9-tetrahydro-5H-pyrimido[4,5-b][1,4]diazepin-2-yl)amino)-N-(1-(2-(4-(4-((2,6-dioxopiperidin-3-yl)amino)-3-fluorophenyl)piperazin-1-yl)ethyl)piperidin-4-yl)-3-methoxybenzamide]	< 30	> 10000	< 30
++ (++: <0.5)	COc1cc(C(=O)NN2CCC(CCN3CCN(c4ccc(NC5CCC(=O)NC5=O)c(F)c4)CC3)CC2)ccc1Nc1ncc2c(n1)N(C(C)C)CC(F)(F)C(=O)N2C (centres unmarked) [Compound 33, 4-((7,7-difluoro-9-isopropyl-5-methyl-6-oxo-6,7,8,9-tetrahydro-5H-pyrimido[4,5-b][1,4]diazepin-2-yl)amino)-N-(4-(2-(4-(4-((2,6-dioxopiperidin-3-yl)amino)-3-fluorophenyl)piperazin-1-yl)ethyl)piperidin-1-yl)-3-methoxybenzamide]	< 30	> 10000	< 30
++ (++: <0.5)	COc1cc(C(=O)NN2CCC(CCN3CCN(c4ccc(NC5CCC(=O)NC5=O)c(F)c4)CC3)CC2)ccc1Nc1ncc2c(n1)N(C1CCCC1)CC(F)(F)C(=O)N2C (centres unmarked) [Compound 34, 4-((9-cyclopentyl-7,7-difluoro-5-methyl-6-oxo-6,7,8,9-tetrahydro-5H-pyrimido[4,5-b][1,4]diazepin-2-yl)amino)-N-(4-(2-(4-(4-((2,6-dioxopiperidin-3-yl)amino)-3-fluorophenyl)piperazin-1-yl)ethyl)piperidin-1-yl)-3-methoxybenzamide]	< 30	> 10000	< 30
++ (++: <0.5)	CCN1CC(F)(F)C(=O)N(C)c2cnc(Nc3cc(F)c(C(=O)NN4CCC(CCN5CCN(c6ccc(NC7CCC(=O)NC7=O)c(F)c6)CC5)CC4)cc3OC)nc21 (centres unmarked) [Compound 35, N(4-(2-(4-(4-((2,6-dioxopiperidin-3-yl)amino)-3-fluorophenyl)piperazin-1-yl)ethyl)piperidin-1-yl)-4-((9-ethyl-7,7-difluoro-5-methyl-6-oxo-6,7,8,9-tetrahydro-5H-pyrimido[4,5-b][1,4]diazepin-2-yl)amino)-2-fluoro-5-methoxybenzamide]	< 30	> 10000	< 50
+++ (+++: <0.3)	COc1cc(C(=O)NC2CC3(CCN(CC4CCN(c5ccc(NC6CCC(=O)NC6=O)c(F)c5)CC4)CC3)C2)ccc1Nc1ncc2c(n1)N(C1CCCC1)CC(F)(F)C(=O)N2C (centres unmarked) [Compound 36, 4-((9-cyclopentyl-7,7-difluoro-5-methyl-6-oxo-6,7,8,9-tetrahydro-5H-pyrimido[4,5-b][1,4]diazepin-2-yl)amino)-N-(7-((1-(4-((2,6-dioxopiperidin-3-yl)amino)-3-fluorophenyl)piperidin-4-yl)methyl)-7-azaspiro[3.5]nonan-2-yl)-3-methoxybenzamide]	< 30	> 10000	< 50
++ (++: <0.5)	COc1cc(C(=O)NC2CCN(CCC3CCN(c4ccc(NC5CCC(=O)NC5=O)c(F)c4)CC3)CC2)c(F)cc1Nc1ncc2c(n1)N(C(C)C)CC(F)(F)C(=O)N2C (centres unmarked) [Compound 37, 4-((7,7-difluoro-9-isopropyl-5-methyl-6-oxo-6,7,8,9-tetrahydro-5H-pyrimido[4,5-b][1,4]diazepin-2-yl)amino)-N-(1-(2-(1-(4-((2,6-dioxopiperidin-3-yl)amino)-3-fluorophenyl)piperidin-4-yl)ethyl)piperidin-4-yl)-2-fluoro-5-methoxybenzamide]	< 50	> 10000	< 100
